From US10934286B2, “Heterocyclic sulfones as ROR gamma modulators” (BRISTOL-MYERS SQUIBB COMPANY, priority 2016, dated 2021)
Structures can show the parent of a compound that is named as a salt.

Molecular target: T1, RORγ receptor (Homo sapiens, UniProt P51449)
T1 construct: Jurkat pEx/Gal/hRORγ CLBD/HYG pG51uc/blast; expressed in transfected cells
T1 sequence (P51449 269-508 limits assumed): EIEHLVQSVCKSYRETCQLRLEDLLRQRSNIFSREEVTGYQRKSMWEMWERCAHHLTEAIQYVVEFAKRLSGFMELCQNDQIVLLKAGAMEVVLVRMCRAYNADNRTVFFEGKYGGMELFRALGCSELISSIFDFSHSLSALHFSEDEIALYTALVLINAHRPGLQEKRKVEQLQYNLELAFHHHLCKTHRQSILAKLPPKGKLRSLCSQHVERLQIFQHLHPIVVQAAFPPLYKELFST
Experiment: General RORγ Gal4 reporter assay (inverse agonist activity, inhibition of luminescence)
Type: cell-based
Conditions: Gal4-luciferase reporter in Jurkat cells stably over-expressing hRORγ LBD; overnight incubation; 40 μM to 0.67 nM
Procedure: General RORγ Gal4 Reporter Assay Inverse agonist activity of potential ligands to RORγ was measured by inhibition of luminescence in a Gal4-luciferase reporter assay in Jurkat cells.
The following day, cells were lysed with 10 μL of Steady-Glo Luciferase Assay System (Promega Cat. No. EZ550), and analyzed immediately. IC50 values were determined.

| Structure (SMILES) | IC50 [nM] |
| --- | --- |
| O=C(O)[C@H]1CC[C@H](C(=O)N2CCC3(S(=O)(=O)c4ccc(F)cc4)c4ncc(C(F)(C(F)(F)F)C(F)(F)F)cc4CCC23)CC1 (some centres unmarked) [Example 4] | 161 |
| O=C(N1CCC2(S(=O)(=O)c3ccccc3)c3ccc(OCc4c(Cl)cccc4Cl)nc3CCC12)C(F)(F)F (single isomer, unassigned) [Example 61] | 802 |
| O=C(CC1(O)CCS(=O)(=O)C1)N1CCC2(S(=O)(=O)c3ccc(F)cc3)c3ccc(C(F)(C(F)(F)F)C(F)(F)F)nc3CCC12 (centres unmarked) [Example 10] | 33 |
| O=C(O)C1CC2(C1)CC(C(=O)N1CCC3(S(=O)(=O)c4ccc(F)cc4)c4ncc(C(F)(C(F)(F)F)C(F)(F)F)cc4CCC13)C2 (centres unmarked) [Example 9] | 87 |
| O=C1N[C@H](C(=O)N2CCC3(S(=O)(=O)c4cccc(F)c4)c4cnc(C(F)(C(F)(F)F)C(F)(F)F)cc4CCC23)[C@H]2C[C@@H]12 (some centres unmarked) [Example 35] | 3300 |
| N#CCCN1C(=O)CC[C@H]1C(=O)N1CCC2(S(=O)(=O)c3ccc(F)cc3)c3cnc(OCc4ccccc4)cc3CCC12 (single isomer, unassigned) [Example 38] | 4250 |
| O=C(N1CCC2(S(=O)(=O)c3ccccc3)c3ccc(OCc4c(Cl)cccc4Cl)nc3CCC12)C(F)(F)F (single isomer, unassigned) [Example 62] | 2440 |
| CC(C)(O)CN1C(=O)[C@H](F)C[C@@H]1C(=O)N1CCC2(S(=O)(=O)c3cccc(F)c3)c3ccc(C(F)(C(F)(F)F)C(F)(F)F)nc3CCC12 (some centres unmarked) [Example 46] | 410 |
| C[C@H]1C[C@H](C(N)=O)CC[C@H]1C(=O)N1CCC2(S(=O)(=O)c3ccc(F)cc3)c3ncc(C(F)(C(F)(F)F)C(F)(F)F)cc3CCC12 (single isomer, unassigned) [Example 59] | 594 |
| [2H]C([2H])([2H])N1C(=O)[C@H](F)C[C@H]1C(=O)N1CCC2(S(=O)(=O)c3cccc(F)c3)c3cnc(C(F)(C(F)(F)F)C(F)(F)F)cc3CCC12 (some centres unmarked) [Example 65] | 91 |
| N#CCCN1C(=O)CC[C@H]1C(=O)N1CCC2(S(=O)(=O)c3ccc(F)cc3)c3ccc(C(F)(C(F)(F)F)C(F)(F)F)nc3CCC12 (single isomer, unassigned) [Example 42] | 43 |
| O=C(O)C12CCC(C(=O)N3CCC4(S(=O)(=O)c5ccc(F)cc5)c5ncc(C(F)(C(F)(F)F)C(F)(F)F)cc5CCC34)(CC1)CC2 (centres unmarked) [Example 6] | 54 |
| NC(=O)[C@H]1CC[C@H](C(=O)N2CCC3(S(=O)(=O)c4ccc(F)cc4)c4ncc(C(F)(C(F)(F)F)C(F)(F)F)cc4CCC23)CC1 (some centres unmarked) [Example 5] | 78 |
| C[C@H]1C[C@H](C(=O)O)CC[C@H]1C(=O)N1CCC2(S(=O)(=O)c3ccc(F)cc3)c3cnc(C(F)(C(F)(F)F)C(F)(F)F)cc3CCC12 (some centres unmarked) [Example 30] | 51 |
| O=C([C@@H]1C[C@@H](F)C(=O)N1CCO)N1CCC2(S(=O)(=O)c3ccc(F)cc3)c3ncc(C(F)(C(F)(F)F)C(F)(F)F)cc3CCC12 (single isomer, unassigned) [Example 36] | 110 |
| NC(=O)C12CCC(C(=O)N3CCC4(S(=O)(=O)c5ccc(F)cc5)c5ncc(C(F)(C(F)(F)F)C(F)(F)F)cc5CCC34)(CC1)CC2 (centres unmarked) [Example 7] | 83 |
| CC(C)(O)CN1C(=O)CCN1C(=O)N1CCC2(S(=O)(=O)c3ccc(F)cc3)c3cnc(C(F)(C(F)(F)F)C(F)(F)F)cc3CCC12 (centres unmarked) [Example 55] | 31 |
| O=C1N[C@H](C(=O)N2CCC3(S(=O)(=O)c4cccc(F)c4)c4ccc(C(F)(C(F)(F)F)C(F)(F)F)nc4CCC23)[C@H]2C[C@@H]12 (single isomer, unassigned) [Example 34, trifluoroacetate] | 62 |
| CC(C)(O)CN1C(=O)[C@@H]2C[C@@H]2[C@H]1C(=O)N1CCC2(S(=O)(=O)c3cccc(F)c3)c3cnc(C(F)(C(F)(F)F)C(F)(F)F)cc3CCC12 (some centres unmarked) [Example 52] | 1810 |
| CC(C)(O)C(=O)N1CCC2(S(=O)(=O)c3ccccc3)c3ccc(C(F)(C(F)(F)F)C(F)(F)F)nc3CCC12 (centres unmarked) [Example 17] | 45 |
| C[C@H]1C[C@H](C(=O)O)CC[C@H]1C(=O)N1CCC2(S(=O)(=O)c3ccc(F)cc3)c3ncc(C(F)(C(F)(F)F)C(F)(F)F)cc3CCC12 (single isomer, unassigned) [Example 23, trifluoroacetate] | 318 |

Continued by falling IC50, values first:

| IC50 [nM] | Structure (SMILES) |
| --- | --- |
| 31 | CC(C)(O)CN1C(=O)[C@H](F)C[C@H]1C(=O)N1CCC2(S(=O)(=O)c3ccc(F)cc3)c3ccc(C(F)(C(F)(F)F)C(F)(F)F)nc3CCC12 (single isomer, unassigned) [Example 43] |
| 30 | CC(C)(O)CC(=O)N1CCC2(S(=O)(=O)c3ccccc3)c3ccc(C(F)(C(F)(F)F)C(F)(F)F)nc3CCC12 (centres unmarked) [Example 18] |
| 29 | CC(C)(O)CN1C(=O)[C@H](F)C[C@H]1C(=O)N1CCC2(S(=O)(=O)c3ccc(F)cc3)c3cnc(C(F)(C(F)(F)F)C(F)(F)F)cc3CCC12 (some centres unmarked) [Example 47] |
| 28 | CC(C)(O)CN1C(=O)CCN1C(=O)N1CCC2(S(=O)(=O)c3cccc(F)c3)c3ccc(C(F)(C(F)(F)F)C(F)(F)F)nc3CCC12 (centres unmarked) [Example 56] |
| 26 | CC(C)(O)CN1C(=O)[C@H](F)C[C@H]1C(=O)N1CCC2(S(=O)(=O)c3cccc(F)c3)c3ccc(C(F)(C(F)(F)F)C(F)(F)F)nc3CCC12 (some centres unmarked) [Example 48] |
| 24 | [2H]C([2H])([2H])N1C(=O)[C@H](F)C[C@H]1C(=O)N1CCC2(S(=O)(=O)c3ccc(F)cc3)c3ccc(C(F)(C(F)(F)F)C(F)(F)F)nc3CCC12 (some centres unmarked) [Example 64] |
| 22 | CC(C)(O)CN1C(=O)[C@@H]2C[C@@H]2[C@H]1C(=O)N1CCC2(S(=O)(=O)c3cccc(F)c3)c3cnc(C(F)(C(F)(F)F)C(F)(F)F)cc3CCC12 (single isomer, unassigned) [Example 51] |
| 21 | C[C@H]1C[C@H](C(=O)O)CC[C@H]1C(=O)N1CCC2(S(=O)(=O)c3cccc(F)c3)c3cnc(C(F)(C(F)(F)F)C(F)(F)F)cc3CCC12 (some centres unmarked) [Example 27] |
| 21 | CC(C)(O)CN1C(=O)CCN1C(=O)N1CCC2(S(=O)(=O)c3cccc(F)c3)c3cnc(C(F)(C(F)(F)F)C(F)(F)F)cc3CCC12 (centres unmarked) [Example 57] |
| 18 | CC(C)(O)CN1C(=O)[C@H](F)C[C@H]1C(=O)N1CCC2(S(=O)(=O)c3ccccc3)c3ccc(C(F)(C(F)(F)F)C(F)(F)F)nc3CCC12 (some centres unmarked) [Example 53] |
| 16 | CC(C)(O)CN1C(=O)CCN1C(=O)N1CCC2(S(=O)(=O)c3ccc(F)cc3)c3ccc(C(F)(C(F)(F)F)C(F)(F)F)nc3CCC12 (single isomer, unassigned) [Example 54, 1-(9b-((4-fluorophenyl)sulfonyl)-7-(perfluoropropan-2-yl)-2,3,3a,4,5,9b-hexahydro-1H-pyrrolo[3,2-f]quinoline-3-carbonyl)-2-(2-hydroxy-2-methylpropyl)pyrazolidin-3-one] |
| 15 | O=C(O)[C@H]1CC[C@H](C(=O)N2CCC3(S(=O)(=O)c4cccc(F)c4)c4ccc(C(F)(C(F)(F)F)C(F)(F)F)nc4CCC23)CC1 (some centres unmarked) [Example 24] |
| 15 | N#CCCN1C(=O)CC[C@H]1C(=O)N1CCC2(S(=O)(=O)c3ccc(F)cc3)c3ccc(OCc4c(Cl)cccc4Cl)nc3CCC12 (single isomer, unassigned) [Example 39] |
| 13 | [2H]C([2H])([2H])N1C(=O)[C@H](F)C[C@H]1C(=O)N1CCC2(S(=O)(=O)c3cccc(F)c3)c3ccc(C(F)(C(F)(F)F)C(F)(F)F)nc3CCC12 (some centres unmarked) [Example 63] |
| 13 | N#CCCN1C(=O)CC[C@H]1C(=O)N1CCC2(S(=O)(=O)c3ccccc3)c3ccc(C(F)(C(F)(F)F)C(F)(F)F)nc3CCC12 (some centres unmarked) [Example 19] |
| 12 | C[C@H]1C[C@H](C(=O)O)CC[C@H]1C(=O)N1CCC2(S(=O)(=O)c3cccc(F)c3)c3ccc(C(F)(C(F)(F)F)C(F)(F)F)nc3CCC12 (some centres unmarked) [Example 25] |
| 12 | O=C(O)[C@H]1CC[C@H](C(=O)N2CCC3(S(=O)(=O)c4ccc(F)cc4)c4ccc(OCc5c(Cl)cccc5Cl)nc4CCC23)CC1 (some centres unmarked) [Example 40] |
| 12 | CC(C)(O)CN1C(=O)CCN1C(=O)N1CCC2(S(=O)(=O)c3ccccc3)c3ccc(C(F)(C(F)(F)F)C(F)(F)F)nc3CCC12 (centres unmarked) [Example 58] |
| 11 | N#CCCN1C(=O)CC[C@H]1C(=O)N1CCC2(S(=O)(=O)c3cccc(F)c3)c3ccc(C(F)(C(F)(F)F)C(F)(F)F)nc3CCC12 (some centres unmarked) [Example 21] |
| 9 | CC(C)(CO)CN1C(=O)[C@H](F)C[C@H]1C(=O)N1CCC2(S(=O)(=O)c3cccc(F)c3)c3ccc(C(F)(C(F)(F)F)C(F)(F)F)nc3CCC12 (some centres unmarked) [Example 37] |
| 8 | O=C(O)[C@H]1CC[C@H](C(=O)N2CCC3(S(=O)(=O)c4ccccc4)c4ccc(C(F)(C(F)(F)F)C(F)(F)F)nc4CCC23)CC1 (some centres unmarked) [Example 28] |
| 8 | O=C(C1CCS(=O)(=O)CC1)N1CCC2(S(=O)(=O)c3cccc(F)c3)c3cnc(C(F)(C(F)(F)F)C(F)(F)F)cc3CCC12 (centres unmarked) [Example 15] |
| 8 | O=C(O)[C@H]1CC[C@H](C(=O)N2CCC3(S(=O)(=O)c4ccc(F)cc4)c4ccc(C(F)(C(F)(F)F)C(F)(F)F)nc4CCC23)CC1 (some centres unmarked) [Example 33] |
| 6 | O=C(O)C12CCC(C(=O)N3CCC4(S(=O)(=O)c5ccccc5)c5ccc(C(F)(C(F)(F)F)C(F)(F)F)nc5CCC34)(CC1)CC2 (centres unmarked) [Example 16] |
| 5 | C[C@H]1C[C@H](C(=O)O)CC[C@H]1C(=O)N1CCC2(S(=O)(=O)c3ccc(F)cc3)c3ccc(C(F)(C(F)(F)F)C(F)(F)F)nc3CCC12 (some centres unmarked) [Example 32] |
| 4 | N#CCCN1C(=O)CC[C@H]1C(=O)N1CCC2(S(=O)(=O)c3cccc(F)c3)c3cnc(C(F)(C(F)(F)F)C(F)(F)F)cc3CCC12 (some centres unmarked) [Example 14] |
